From the NIST ThermoML archive (doi:10.1021/je0601309)
± gives the expanded uncertainty stated by the source.

Settings: Liquid; for mass density: 298.15 K, 101.33 kPa

COC(=O)OC [dimethyl carbonate]
mass density: 1063.38 ± 0.16 kg/m3 | vapor or sublimation pressure (336.68 K): 40 ± 0.35 kPa | vapor or sublimation pressure (344.38 K): 53.33 ± 0.39 kPa | vapor or sublimation pressure (350.66 K): 66.66 ± 0.46 kPa | vapor or sublimation pressure (356.01 K): 79.99 ± 0.54 kPa | vapor or sublimation pressure (360.68 K): 93.32 ± 0.57 kPa

CCO [ethanol]
mass density: 785.23 ± 0.31 kg/m3 | vapor or sublimation pressure (329.7 K, Ebulliometric method (Recirculating still)): 40 ± 0.42 kPa | vapor or sublimation pressure (336.11 K, Ebulliometric method (Recirculating still)): 53.33 ± 0.46 kPa | vapor or sublimation pressure (341.28 K, Ebulliometric method (Recirculating still)): 66.66 ± 0.56 kPa | vapor or sublimation pressure (345.65 K, Ebulliometric method (Recirculating still)): 79.99 ± 0.65 kPa | vapor or sublimation pressure (349.45 K, Ebulliometric method (Recirculating still)): 93.32 ± 0.7 kPa

CO [methanol]
mass density: 786.67 ± 0.31 kg/m3 | vapor or sublimation pressure (315.74 K, Ebulliometric method (Recirculating still)): 40 ± 0.4 kPa | vapor or sublimation pressure (315.87 K, Ebulliometric method (Recirculating still)): 40 ± 0.4 kPa | vapor or sublimation pressure (322.17 K, Ebulliometric method (Recirculating still)): 53.33 ± 0.54 kPa | vapor or sublimation pressure (322.25 K, Ebulliometric method (Recirculating still)): 53.33 ± 0.54 kPa | vapor or sublimation pressure (327.37 K, Ebulliometric method (Recirculating still)): 66.66 ± 0.67 kPa | vapor or sublimation pressure (327.45 K, Ebulliometric method (Recirculating still)): 66.66 ± 0.67 kPa | vapor or sublimation pressure (331.75 K, Ebulliometric method (Recirculating still)): 79.99 ± 0.8 kPa | vapor or sublimation pressure (331.84 K, Ebulliometric method (Recirculating still)): 79.99 ± 0.8 kPa | vapor or sublimation pressure (335.56 K, Ebulliometric method (Recirculating still)): 93.32 ± 0.94 kPa | vapor or sublimation pressure (335.66 K, Ebulliometric method (Recirculating still)): 93.32 ± 0.94 kPa
